# Data taken from patent US20190216093A1, “COMPOSITIONS AND RELATED METHODS FOR AGRICULTURE” (priority 2017, published 2019).
# Tests used:
# Sitophilus maize weevils [1] = assay: Weevil F1 offspring development (dissection of corn kernels); assay type: in vivo, Sitophilus zeamais; details: for offspring in the larval form: after 25 days; for number of offspring found in dissected corn kernels: after 25 days (water 12)
# Escherichia coli DH5α = assay: Assessment of antibiotic penetration into corn (E. coli growth on LB plates); assay type: cell-based; details: kernels soaked in 2.5 or 0.25 mg/ml ciprofloxacin
# Procedure: The kernels were soaked for 1.5 hours as described herein. After soaking, kernels were air dried and assayed to determine whether the antibiotic was able to coat and penetrate the kernel. To test this, a concentrated sample of Escherichia coli DH5α in water was spread onto 5 Luria Broth (LB) plates. […] The plates were incubated overnight at 37 degrees C. and bacterial growth and/or zone(s) of inhibition were assessed the next day.
# A concentrated culture of E. coli was then spread onto LB plates and one of the coated kernels was then placed onto the center of the plate. The plates were incubated overnight, and bacterial growth was assessed the next day.
# The plates were incubated overnight and the next day bacterial growth was assessed.
# Sitophilus maize weevils [2] = assay: Weevil offspring emergence (fecundity); details: 2.5 mg/ml ciprofloxacin; till day 43
# Sitophilus maize weevils [3] = assay: Weevil survival monitoring; assay type: in vivo, Sitophilus zeamais; details: S. zeamais mating pairs; 250 μg/ml or 2.5 mg/ml ciprofloxacin; 18 days
# Procedure: Sitophilus maize weevils (Sitophilus zeamais) were reared on organic corn at 27.5° C. and 70% relative humidity. Prior to being used for weevil rearing, corn was frozen for 7 days and then tempered to 10% humidity with sterile water. […] For treatments, the appropriate amount of stock solution was diluted in sterile water.
# Weevil survival was monitored daily for 18 days, after which DNA was extracted from the remaining weevils in each group. Briefly, the weevil body was surface sterilized by dipping the weevil into a 6% bleach solution for approximately 5 seconds. […] DNA concentration was measured using a nanodrop nucleic acid quantification, and SPE and weevil DNA copy numbers were measured by qPCR. […] The primers used for weevil (β-actin) were SACT144_FOR ([…]; SEQ ID NO: 240) and SACT314_REV ([…]; SEQ ID NO: 241) (Login et al., 2011). qPCR was performed using a qPCR amplification ramp of 1.6 degrees C./s and the following conditions: 1) 95° C. for 10 minutes, 2) 95° C. for 15 seconds, 3) 57° C. for 30 seconds, 4) repeat steps 2-3 40×, 5) 95° C. for 15 seconds, 6) 55° C. for 1 minute, 7) ramp change to 0.15 degrees C./s, 8) 95° C. for 1 second. qPCR data was analyzed using analytic (Thermo Fisher Scientific, QuantStudio Design and Analysis) software.
smiles,measurement,setting,value
O=C(O)c1cn(C2CC2)c2cc(N3CCNCC3)c(F)cc2c1=O [ciprofloxacin],F1 weevil development,Sitophilus maize weevils [1]; 250 ug/ml and 2.5 mg/ml ciprofloxacin,showed a delay in development compared to control treated weevils
same,offspring in the larval form,Sitophilus maize weevils [1]; 250 ug/ml ciprofloxacin,38%
same,number of offspring found in dissected corn kernels,Sitophilus maize weevils [1]; 250 ug/ml ciprofloxacin,13 offspring
same,offspring in the larval form,Sitophilus maize weevils [1]; 2.5 mg/ml ciprofloxacin,65%
same,number of offspring found in dissected corn kernels,Sitophilus maize weevils [1]; 2.5 mg/ml ciprofloxacin,20 offspring
same,bacterial growth on plate with entire soaked corn kernel,Escherichia coli DH5α,no bacteria grew on plates with entire corn kernels
same,emerged F1 offspring,Sitophilus maize weevils [2],much less offspring that emerged
same,weevil survival,Sitophilus maize weevils [3],all weevils remained alive for the course of the experiment
